Inhibition data for 31 compounds are collected here from patent publication US8916599B2, “1H-benz imidazole-5-carboxamides as anti-inflammatory agents” (Orexo AB, priority 2008, dated 2014).

For the first assay, the target named is T1, recombinant human mPGES-1 (Homo sapiens, UniProt O14684).
T1 construct: made in house; host or cells: Rosetta E. coli (microsomal/membrane fraction)
T1 sequence (O14684 1-152): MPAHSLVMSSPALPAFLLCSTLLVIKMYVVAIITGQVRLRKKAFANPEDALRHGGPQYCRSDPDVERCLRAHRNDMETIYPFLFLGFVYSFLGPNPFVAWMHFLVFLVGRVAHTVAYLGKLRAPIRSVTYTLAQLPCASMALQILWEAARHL
Briefly: mPGES-1 inhibition test (microsomes, PGH2 substrate, HTRF detection of PGE2). In kind it is biochemical. The note with it: inhibition of mPGES-1 at 1 μM (marked in cell). Put shortly: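 Bacterial microsomes with GSH-containing phosphate buffer at pH 7.4 are exposed to test compounds for 25 minutes before a one-minute PGH2 conversion. The quenched, 750-fold diluted mixture is analysed by time-resolved FRET for PGE2.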
Consider `CC(C)Oc1cc2c(cc1C(=O)NC1CCC(C)(C)CC1)nc(Nc1c(Cl)ccc(Cl)c1F)n2C` [Example 625, 2-(3,6-Dichloro-2-fluoro-phenylamino)-6-isopropoxy-N-(4,4-dimethyl-cyclohex-1-yl)-1-methyl-1H-benzimidazole-5-carboxamide], for which the inhibition at 1 µM amounted to 99%.

With `O=C(Nc1cccc(Br)c1)c1ccc2[nH]c(Nc3c(Cl)cccc3Cl)nc2c1` [Example 69, 2-(2,6-Dichloro-phenylamino)-1H-benzimidazole-5-carboxylic acid (3-bromo-phenyl)-amide], the inhibition at 1 µM is 100%.

As to `O=C(Nc1ccc(F)c(Cl)c1)c1ccc2[nH]c(Nc3c(Cl)cccc3Cl)nc2c1` [Example 71, 2-(2,6-Dichloro-phenylamino)-1H-benzimidazole-5-carboxylic acid (3-chloro-4-fluoro-phenyl)-amide], the inhibition at 1 µM is 95%. With `COc1cc2c(cc1C(=O)NC1CCC3(CC1)CC3)nc(Nc1c(Cl)ccc(Cl)c1F)n2C` [Example 645, 2-(3,6-Dichloro-2-fluoro-phenylamino)-6-methoxy-N-(spiro[2.5]oct-6-yl)-1-methyl-1H-benzimidazole-5-carboxamide], the inhibition at 1 µM was found to be 100%. `COc1cc2[nH]c(Nc3c(Cl)ccc(C)c3F)nc2cc1C(=O)N[C@H]1CC[C@H](C(F)(F)F)CC1` [Example 622, 2-(6-Chloro-2-fluoro-3-methyl-phenylamino)-6-methoxy-N-(4-trans-trifluoromethyl-cyclohex-1-yl)-1H-benzimidazole-5-carboxamide]: the inhibition at 1 µM was 96%. In the case of `COc1cc2c(cc1C(=O)Nc1ccc(Br)cc1)nc(Nc1cc(C)ccc1C(F)(F)F)n2C` [Example 641, 2-(5-Methyl-2-trifluoromethyl-phenylamino)-N-(4-bromphenyl)-6-methoxy-1-methyl-1H-benzimidazol-5-carboxamide], the inhibition at 1 µM turned out to be 97%.

`Cc1ccc(Cl)c(Nc2nc3cc(C(=O)N[C@H]4CC[C@H](C(F)(F)F)CC4)c(F)cc3[nH]2)c1F` [Example 653, 2-(6-Chloro-2-fluoro-3-methyl-phenylamino)-N-(trans-4-trifluoromethyl-cyclohex-1-yl)-6-fluoro-1H-benzimidazole-5-carboxamide]: the inhibition at 1 µM came out at 92%.

The same assay, now with this note: inhibition of mPGES-1 at 10 μM.
For `Cn1c(Nc2c(Cl)cccc2Cl)nc2cc(C(=O)NC3CCCCC3O)ccc21` (stereo not shown) [Example 237, 2-(2,6-Dichloro-phenylamino)-1-methyl-1H-benzimidazole-5-carboxylic acid (2-hydroxy-cyclohexyl)-amide], the inhibition at 10 µM stood at 87%. For `C[C@@H]1CCC(NC(=O)c2cc3nc(Nc4c(F)cccc4Cl)n(C)c3cc2F)C1` (stereo partly drawn) [Example 501, 2-(2-Chloro-6-fluorophenylamino)-6-fluoro-1-methyl-N-((3R)-3-methylcyclopentyl)-1H-benzimidazole-5-carboxamide], the inhibition at 10 µM is 98%. Turning to `Cn1c(Nc2c(Cl)cccc2Cl)nc2cc(C(=O)Nc3ccc(Cl)cn3)ccc21` [Example 494, N-(5-Chloropyridin-2-yl)-2-(2,6-dichlorophenylamino)-1-methyl-1H-benzimidazole-5-carboxamide], the inhibition at 10 µM amounted to 99%. Same read-out and setting: for `Cn1c(Nc2c(F)cccc2Cl)nc2cc(C(=O)NC3CCC(C(C)(C)C)CC3)c(F)cc21` (stereo not shown) [Example 354, N-(4-tert.-Butylcyclohexyl)-2-(2-chloro-6-fluorophenylamino)-6-fluoro-1-methyl-1H-benzimidazole-5-carboxamide] the value was 100%. The same measure, in the same setting: in the case of `Cn1c(Nc2c(Cl)cccc2Cl)nc2cc(C(=O)Nc3cc(C#N)ccn3)ccc21` [Example 524, N-(4-Cyanopyridin-2-yl)-2-(2,6-dichlorophenylamino)-1-methyl-1H-benzimidazole-5-carboxamide] it was 98%; in that of `CCCCCCNC(=O)c1cc2nc(Nc3c(F)cccc3Cl)n(C)c2cc1F` [Example 458, 2-(2-Chloro-6-fluorophenylamino)-6-fluoro-N-hexyl-1-methyl-1H-benzimidazole-5-carboxamide], 99%; in that of `O=C(Nc1ccc(Cl)c(F)c1)c1cc2nc(Nc3c(Cl)cccc3Cl)[nH]c2cc1F` [Example 124, 2-(2,6-Dichloro-phenylamino)-6-fluoro-1H-benzimidazol-5-carboxylic acid (4-chloro-3-fluoro-phenyl)-amide], 98%. Same read-out and setting: for `CN(C)CCCn1c(Nc2c(Cl)cccc2Cl)nc2cc(C(=O)Nc3cc(Cl)ccn3)ccc21` [Example 276, 2-(2,6-Dichloro-phenylamino)-1-(3-dimethylamino-propyl)-1H-benzimidazole-5-carboxylic acid (4-chloro-pyridin-2-yl)-amide] the value was 100%; for `O=C(Nc1ccccc1)c1ccc2[nH]c(Nc3ccccc3Cl)nc2c1` [Example 9, 2-(2-Chloro-phenylamino)-1H-benzimidazole-5-carboxylic acid-phenylamide], 93%; for `COCCCn1c(Nc2c(Cl)cccc2Cl)nc2cc(C(=O)Nc3cc(Cl)ccn3)ccc21` [Example 274, 2-(2,6-Dichloro-phenylamino)-1-(3-methoxy-propyl)-1H-benzimidazole-5-carboxylic acid (4-chloro-pyridin-2-yl)-amide], 100%. In the case of `Cc1cnc(NC(=O)c2cc3nc(Nc4c(Cl)cccc4Cl)n(C)c3cc2F)cc1Cl` [Example 372, N-(4-Chloro-5-methylpyridin-2yl)-2-(2,6-dichlorophenylamino)-6-fluoro-1-methyl-1H-benzimidazole-5-carboxamide], the inhibition at 10 µM came to 98%.

As to `Cn1c(Nc2c(Cl)cccc2Cl)nc2cc(C(=O)N[C@H]3CC[C@H](C(F)F)CC3)c(F)cc21` [Example 475, 2-(2,6-Dichlorophenylamino)-N-((1r,4r)-4-(difluoromethyl)cyclohexyl)-6-fluoro-1-methyl-1H-benzimidazole-5-carboxamide], the inhibition at 10 µM is 100%. Consider `CC(C)Oc1cc2[nH]c(Nc3c(Cl)ccc(Cl)c3F)nc2cc1C(=O)NC1CCC2(CC1)CC2` [Example 615, 2-(3,6-Dichloro-2-fluoro-phenylamino)-6-isopropoxy-N-(spiro[2.5]oct-6-yl)-1H-benzimidazole-5-carboxamide], for which the inhibition at 10 µM was 96%. On the same count and under the same terms, for `CCOc1cc2[nH]c(Nc3c(Cl)ccc(Cl)c3F)nc2cc1C(=O)Nc1ccc(Br)cc1` [Example 604, 2-(3,6-Dichloro-2-fluoro-phenylamino)-N-(4-bromo-phenyl)-6-ethoxy-1H-benzimidazole-5-carboxamide] the value was 100%; for `Cc1cnc(NC(=O)c2cc3nc(Nc4c(Cl)cccc4Cl)n(C)c3cc2F)cc1C` [Example 421, 2-(2,6-Dichlorophenylamino)-N-(4,5-dimethylpyridin-2-yl)-6-fluoro-1-methyl-1H-benzimidazole-5-carboxamide], 99%. For the compound `Cn1c(Nc2c(Cl)cccc2Cl)nc2cc(C(=O)NCc3cnccc3C(F)(F)F)c(F)cc21` [Example 126, 2-(2,6-Dichloro-phenylamino)-6-fluoro-1-methyl-1H-benzimidazole-5-carboxylic acid (4-trifluoromethyl-pyridin-3-ylmethyl)-amide], the inhibition at 10 µM was determined as 92%. Regarding `O=C(Nc1cc(Cl)ccn1)c1cc(Br)c2[nH]c(Nc3c(Cl)cccc3Cl)nc2c1` [Example 500, 7-Bromo-N-(4-chloropyridin-2-yl)-2-(2,6-dichlorophenylamino)-1H-benzimidazole-5-carboxamide], the inhibition at 10 µM is 100%. In the case of `Cc1nc(NC(=O)c2cc3nc(Nc4c(Cl)cccc4Cl)n(C)c3cc2F)cc2c1CCCC2` [Example 131, 2-(2,6-Dichloro-phenylamino)-6-fluoro-1-methyl-1H-benzimidazole-5-carboxylic acid (1-methyl-5,6,7,8-tetrahydro-isoquinolin-3-yl)-amide], the inhibition at 10 µM was 96%. Still for that read-out and setting: for `COCCn1c(Nc2c(Cl)cccc2Cl)nc2cc(C(=O)Nc3cc(Cl)ccn3)ccc21` [Example 272, 2-(2,6-Dichloro-phenylamino)-1-(2-methoxy-ethyl)-1H-benzimidazole-5-carboxylic acid (4-chloro-pyridin-2-yl)-amide] the value was 90%; for `O=C(NC1CCCC(C(F)(F)F)C1)c1ccc2[nH]c(Nc3c(Cl)cccc3Cl)nc2c1` (stereo not shown) [Example 229, 2-(2,6-Dichloro-phenylamino)-1H-benzimidazole-5-carboxylic acid (3-trifluoromethyl-cyclohexyl)-amide], 91%; for `O=C(Nc1cc(Cl)ccn1)c1ccc2c(c1)nc(Nc1c(Cl)cccc1Cl)n2CC(=O)N1CCOCC1` [Example 275, 2-(2,6-Dichloro-phenylamino)-1-(2-morpholin-4-yl-2-oxo-ethyl)-1H-benzimidazole-5-carboxylic acid (4-chloro-pyridin-2-yl)-amide], 96%. On to `O=C(Nc1ccc(Br)cc1)c1cc2[nH]c(Nc3c(Cl)cccc3Cl)nc2c(F)c1F` [Example 395, N-(4-Bromophenyl)-2-(2,6-dichlorophenylamino)-4,5-difluoro-1H-benzimidazole-6-carboxamide], for which the inhibition at 10 µM worked out at 100%. Still for that read-out and setting: in the case of `COc1cccc(NC(=O)c2ccc3nc(Nc4c(Cl)cccc4Cl)[nH]c3c2)n1` [Example 194, 2-(2,6-Dichloro-phenylamino)-3H-benzimidazole-5-carboxylic acid (6-methoxy-pyridin-2-yl)-amide] it was 98%; in that of `COc1cc2c(cc1C(=O)NC1CCC(C)(C)CC1)nc(Nc1c(Cl)ccc(Cl)c1F)n2C` [Example 621, 2-(3,6-Dichloro-2-fluoro-phenylamino)-6-methoxy-N-(4,4-dimethyl-cyclohex-1-yl)-1-methyl-1H-benzimidazole-5-carboxamide], 99%.
